Results published in patent US12071453B2, “Neuroactive steroids, compositions, and uses thereof” (Sage Therapeutics, Inc., priority 2013, dated 2024).

Biological target: [35S]-TBPS binding in rat brain cortical membranes
Test: Steroid inhibition of [35S]-TBPS binding, rat brain cortical membranes
Conditions: 3 nM [35S]-TBPS, in the presence of 5 μM GABA, read-out: 35S-TBPS Radioligand Displacement (IC50)
Description: TBPS binding assays using rat brain cortical membranes in the presence of 5 μM GABA has been described (Gee et al, J. Pharmacol. Exp. Ther. 1987, 241, 346-353; Hawkinson et al, Mol. Pharmacol. 1994, 46, 977-985; Lewin, A. H et al., Mol. Pharmacol. 1989, 35, 189-194).
Briefly, cortices are rapidly removed following decapitation of carbon dioxide-anesthetized Sprague-Dawley rats (200-250 g). The cortices are homogenized in 10 volumes of ice-cold 0.32 M sucrose using a glass/teflon homogenizer and centrifuged at 1500×g for 10 min at 4° C. The resultant supernatants are centrifuged at 10,000×g for 20 min at 4° C. to obtain the P2 pellets. The P2 pellets are resuspended in 200 mM NaCl/50 mM Na—K phosphate pH 7.4 buffer and centrifuged at 10,000×g for 10 min at 4° C. This washing procedure is repeated twice and the pellets are resuspended in 10 volumes of buffer. Aliquots (100 μL) of the membrane suspensions are incubated with 3 nM [^35S]-TBPS and 5 μL aliquots of test drug dissolved in dimethyl sulfoxide (DMSO) (final 0.5%) in the presence of 5 μM GABA. The incubation is brought to a final volume of 1.0 mL with buffer. Nonspecific binding is determined in the presence of 2 μM unlabeled TBPS and ranged from 15 to 25%. Following a 90 min incubation at room temp, the assays are terminated by filtration through glass fiber filters (Schleicher and Schuell No. 32) using a cell harvester (Brandel) and rinsed three times with ice-cold buffer. Filter bound radioactivity is measured by liquid scintillation spectrometry. Non-linear curve fitting of the overall data for each drug averaged for each concentration is done using Prism (GraphPad). […] The concentration of test compound producing 50% inhibition (IC50) of specific binding and the maximal extent of inhibition (Imax) are determined for the individual experiments with the same model used for the overall data and then the mean±SEM.s of the individual experiments are calculated.
Various compounds are or can be screened to determine their potential as modulators of [^35S]-TBPS binding in vitro. These assays are or can be performed in accordance with the above discussed procedures.

Row | Structure (SMILES) | IC50 [nM]
1 | COC[C@]12CC[C@@](C)(O)C[C@@H]1CC[C@H]1[C@@H]3CC[C@H](C(=O)Cn4cccn4)[C@@]3(C)CC[C@@H]12 [Compound 2] | > 500
2 | COC[C@]12CC[C@@](C)(O)C[C@@H]1CC[C@H]1[C@@H]3CC[C@H](C(=O)CN4CCOCC4)[C@@]3(C)CC[C@@H]12 [Compound 4] | > 500
3 | COC[C@]12CC[C@@](C)(O)C[C@@H]1CC[C@H]1[C@@H]3CC[C@H](C(=O)CN4CCN(C(C)=O)CC4)[C@@]3(C)CC[C@@H]12 [Compound 5] | > 500
4 | CC(=O)N1CCN(CC(=O)[C@H]2CC[C@H]3[C@@H]4CC[C@H]5C[C@](C)(O)CC[C@]5(CO)[C@H]4CC[C@]23C)CC1 [Compound 6] | > 500
5 | C[C@@]1(O)CC[C@@]2(CO)[C@@H](CC[C@H]3[C@@H]4CC[C@H](C(=O)CN5CCN(S(C)(=O)=O)CC5)[C@@]4(C)CC[C@@H]32)C1 [Compound 7] | > 500
6 | C[C@@]1(O)CC[C@@]2(CO)[C@@H](CC[C@H]3[C@@H]4CC[C@H](C(=O)CN5CCOCC5)[C@@]4(C)CC[C@@H]32)C1 [Compound 9] | > 500
7 | C[C@@]1(O)CC[C@@]2(CO)[C@@H](CC[C@H]3[C@@H]4CC[C@H](C(=O)Cn5nccn5)[C@@]4(C)CC[C@@H]32)C1 [Compound 10] | > 500
8 | C[C@@]1(O)CC[C@@]2(CO)[C@@H](CC[C@H]3[C@@H]4CC[C@H](C(=O)Cn5cccn5)[C@@]4(C)CC[C@@H]32)C1 [Compound 11] | > 500
9 | C[C@@]1(O)CC[C@@]2(CO)[C@@H](CC[C@H]3[C@@H]4CC[C@H](C(=O)Cn5ccnn5)[C@@]4(C)CC[C@@H]32)C1 [Compound 12] | > 500
10 | COC[C@]12CC[C@@](C)(O)C[C@H]1CC[C@H]1[C@@H]3CC[C@H](C(=O)Cn4cc(C)cn4)[C@@]3(C)CC[C@@H]12 [Compound 28] | 50 to 100
11 | COC[C@]12CC[C@@](C)(O)C[C@@H]1CC[C@H]1[C@@H]3CC[C@H](C(=O)Cn4nc5ccccc5n4)[C@@]3(C)CC[C@@H]12 [Compound 40] | 10 to 50
12 | COC[C@]12CC[C@@H](O)C[C@@H]1CC[C@H]1[C@@H]3CC[C@H](C(=O)Cn4nccn4)[C@@]3(C)CC[C@@H]12 [Compound 90] | 50 to 100
13 | COC[C@]12CC[C@@H](O)C[C@@H]1CC[C@H]1[C@@H]3CC[C@H](C(=O)Cn4ccnn4)[C@@]3(C)CC[C@@H]12 [Compound 91] | 100 to 500
14 | CCOC(=O)c1ccn(CC(=O)[C@H]2CC[C@H]3[C@@H]4CC[C@H]5C[C@H](O)CC[C@]5(COC)[C@H]4CC[C@]23C)n1 [Compound 92] | 10 to 50
15 | COC[C@]12CC[C@@H](O)C[C@@H]1CC[C@H]1[C@@H]3CC[C@H](C(=O)Cn4cc(C)cn4)[C@@]3(C)CC[C@@H]12 [Compound 93] | 100 to 500
16 | COC[C@]12CC[C@@](C)(O)C[C@@H]1CC[C@H]1[C@@H]3CC[C@H](C(=O)Cn4nnc5c(F)c(F)ccc54)[C@@]3(C)CC[C@@H]12 [Compound 114] | 10 to 50
17 | COC[C@]12CC[C@@](C)(O)C[C@@H]1CC[C@H]1[C@@H]3CC[C@H](C(=O)Cn4nnc5ccc(F)c(F)c54)[C@@]3(C)CC[C@@H]12 [Compound 115] | 10 to 50
18 | COC[C@]12CC[C@@](C)(O)C[C@@H]1CC[C@H]1[C@@H]3CC[C@H](C(=O)Cn4cc(C#N)cn4)[C@@]3(C)CC[C@@H]12 [Compound 127] | 10 to 50
19 | COC[C@]12CC[C@@](C)(O)C[C@@H]1CC[C@H]1[C@@H]3CC[C@H](C(=O)Cn4nc5ccc(F)c(F)c5n4)[C@@]3(C)CC[C@@H]12 [Compound 128] | < 10
20 | COC[C@]12CC[C@@](C)(O)C[C@@H]1CC[C@H]1[C@@H]3CC[C@H](C(=O)Cn4nnc5c(F)c(Cl)ccc54)[C@@]3(C)CC[C@@H]12 [Compound 138] | 100 to 500
21 | COC[C@]12CC[C@@](C)(O)C[C@@H]1CC[C@H]1[C@@H]3CC[C@H](C(=O)Cn4nnc5ccc(OC(F)(F)F)cc54)[C@@]3(C)CC[C@@H]12 [Compound 144] | 50 to 100
